Measurements published in BindingDB's records for doi:10.1021/jm00054a015 (Merck Research Laboratories, 1993).

Each molecule was assayed against T1, Dimer of Gag-Pol polyprotein [489-587] (Human immunodeficiency virus 1, UniProt P12497) (assay: Protease Inhibition Assay). Settings: pH 5.5; 30 °C.
T1 construct: 489-587
Method: Sensitivity of HIV-1 protease activity to protease inhibitors was determined by a peptide substrate cleavage assay. Protease products were analyzed on a reverse-phase high-pressure liquid chromatograph.

Question: Which IC50 does the source give for CC(C)(C)NC(=O)C1C[C@@H]2CCCC[C@@H]2CN1C[C@@H](O)[C@H](Cc1ccccc1)NC(=O)O[C@@H]1CCCOC1 (stereo partly drawn) [(3R)-oxan-3-yl N-[(2S,3R)-4-[(4aS,8aS)-3-(tert-butylcarbamoyl)-decahydroisoquinolin-2-yl]-3-hydroxy-1-phenylbutan-2-yl]carbamate] here?
Answer: 308 nM

Question: CC(C)(C)NC(=O)C1C[C@@H]2CCCC[C@@H]2CN1C[C@@H](O)[C@H](Cc1ccccc1)NC(=O)OC(C)(C)C (stereo partly drawn) [tert-butyl N-[(2S,3R)-4-[(4aS,8aS)-3-(tert-butylcarbamoyl)-decahydroisoquinolin-2-yl]-3-hydroxy-1-phenylbutan-2-yl]carbamate] was tested. Which IC50 did it give?
Answer: > 3000 nM

Question: With CC(C)(C)NC(=O)C1C[C@@H]2CCCC[C@@H]2CN1C[C@@H](O)[C@H](Cc1ccccc1)NC(=O)O[C@H]1CCCOC1 (stereo partly drawn) [(3S)-oxan-3-yl N-[(2S,3R)-4-[(4aS,8aS)-3-(tert-butylcarbamoyl)-decahydroisoquinolin-2-yl]-3-hydroxy-1-phenylbutan-2-yl]carbamate] as the molecule, how does the IC50 read?
Answer: 392 nM

Question: With O=C(N[C@@H](Cc1ccccc1)[C@@H](O)C[C@@H](Cc1ccccc1)C(=O)N[C@H]1c2ccccc2C[C@H]1O)O[C@@H]1CCCOC1 [(3R)-oxan-3-yl N-[(2S,3S,5R)-5-benzyl-3-hydroxy-5-{[(1S,2R)-2-hydroxy-2,3-dihydro-1H-inden-1-yl]carbamoyl}-1-phenylpentan-2-yl]carbamate] as the molecule, how does the IC50 read?
Answer: < 0.03 nM

Question: Which IC50 does the source give for CC(C)(C)NC(=O)C1C[C@@H]2CCCC[C@@H]2CN1C[C@@H](O)[C@H](Cc1ccccc1)NC(=O)O[C@@H]1C=CCOC1 (stereo partly drawn) [(3R)-3,6-dihydro-2H-pyran-3-yl N-[(2S,3R)-4-[(4aS,8aS)-3-(tert-butylcarbamoyl)-decahydroisoquinolin-2-yl]-3-hydroxy-1-phenylbutan-2-yl]carbamate] here?
Answer: 48.9 nM

Question: For O=C(N[C@@H](Cc1ccccc1)[C@@H](O)C[C@@H](Cc1ccccc1)C(=O)N[C@H]1c2ccccc2C[C@H]1O)O[C@H]1CCOC1 [(3S)-oxolan-3-yl N-[(2S,3S,5R)-5-benzyl-3-hydroxy-5-{[(1S,2R)-2-hydroxy-2,3-dihydro-1H-inden-1-yl]carbamoyl}-1-phenylpentan-2-yl]carbamate], which IC50 is on record?
Answer: < 0.03 nM

Question: For CC(C)(C)NC(=O)C1C[C@@H]2CCCC[C@@H]2CN1C[C@@H](O)[C@H](Cc1ccccc1)NC(=O)O[C@H]1C=CCOC1 (stereo partly drawn) [(3S)-3,6-dihydro-2H-pyran-3-yl N-[(2S,3R)-4-[(4aS,8aS)-3-(tert-butylcarbamoyl)-decahydroisoquinolin-2-yl]-3-hydroxy-1-phenylbutan-2-yl]carbamate], which IC50 is on record?
Answer: 314 nM

Question: For O=C(N[C@@H](Cc1ccccc1)[C@@H](O)C[C@@H](Cc1ccccc1)C(=O)N[C@H]1c2ccccc2C[C@H]1O)O[C@H]1CCCOC1 [(3S)-oxan-3-yl N-[(2S,3S,5R)-5-benzyl-3-hydroxy-5-{[(1S,2R)-2-hydroxy-2,3-dihydro-1H-inden-1-yl]carbamoyl}-1-phenylpentan-2-yl]carbamate], which IC50 is on record?
Answer: < 0.03 nM
